Source: US20100168146A1, “Composition Comprising (R)-Spiro[L-Azabicyclo[2.2.2]Octane-3,2'(3'H)-Furo[2,3-B]Pyridine (AZD0328) and its Use in the Treatment of Alzheimer's Disease, ADHD or Cognitive Dysfunction” (priority 2008, published 2010)

How the values were obtained:
[1] = system: rats; experiment: Nicotine drug discrimination; conditions: rat, sc, training drug
Procedure: AZD0328 was tested for its potential to produce nicotine-like stimulus effects after subcutaneous administration in a drug-discrimination procedure (Table 3).

[2] = Pharmacological activity of metabolite; conditions: major metabolite
Procedure: Pyridinyl methylation of AZD0328 was a unique polar metabolite (M2) observed in dog hepatocytes. Other minor hydroxylation/oxidation and glucuronide conjugation products were detected in monkey, dog, rat, and guinea pig hepatocyte incubations and mini-pig hepatic microsome incubations. […] Analysis of plasma and urine samples from either orally or iv dosed rats confirmed N-oxide product of AZD0328 was a main product in the excretion and circulation. The percentage of AZD0328 N-oxide in the plasma from male rats was much higher than from females.

Compound	Response rates [1]	Pharmacological activity [2]
CN1CCCC1c1cccnc1 (centres unmarked) [nicotine, reference compound]	not significantly affected	
[O-][N+]12CCC(CC1)C1(Cc3cccnc3O1)C2 (centres unmarked) [quinuclidinyl-N-oxide of AZD0328]		pharmacological inactive
